Assay results published in patent US20220348595A1, “COMPOUNDS AND METHODS FOR THE TARGETED DEGRADATION OF ESTROGEN RECEPTORS” (Endotarget Inc., priority 2021, published 2022).
pIC50: −log10 of the molar value.

Assays:
Type in all cases: cell-based
ERα = target: T1, ERα (Homo sapiens, UniProt P03372); test: ER degradation in MCF-7 cells (Western blot); conditions: for DC50: ER degradation, 24 hours; for Dmax: MCF7, Maximal ER degradation, read-out: Dmax
T1 construct: endogenous in cells; host or cells: MCF-7
T1 sequence (P03372 1-595): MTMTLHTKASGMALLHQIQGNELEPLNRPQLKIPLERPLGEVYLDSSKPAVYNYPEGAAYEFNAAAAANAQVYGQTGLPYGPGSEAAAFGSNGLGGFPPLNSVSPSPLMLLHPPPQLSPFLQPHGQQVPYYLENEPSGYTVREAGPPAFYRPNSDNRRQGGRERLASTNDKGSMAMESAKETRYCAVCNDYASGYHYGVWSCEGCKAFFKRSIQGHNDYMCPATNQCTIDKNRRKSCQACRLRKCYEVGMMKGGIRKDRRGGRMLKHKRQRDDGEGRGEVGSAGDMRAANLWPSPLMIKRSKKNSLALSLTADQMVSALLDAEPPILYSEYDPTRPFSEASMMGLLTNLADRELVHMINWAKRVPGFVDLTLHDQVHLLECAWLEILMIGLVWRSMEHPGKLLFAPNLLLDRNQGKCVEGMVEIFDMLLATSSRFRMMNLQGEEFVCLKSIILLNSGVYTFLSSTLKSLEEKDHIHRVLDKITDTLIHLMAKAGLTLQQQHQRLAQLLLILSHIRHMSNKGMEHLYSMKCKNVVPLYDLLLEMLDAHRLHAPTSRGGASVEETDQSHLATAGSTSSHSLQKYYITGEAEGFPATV
How it was run: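 ERα levels assessed by Western blot (50 μg lysate protein, infrared scanner) after 24-hour exposure of MCF-7 cells to varied compound concentrations. Values reported as DC50, the concentration halving ER expression, and Dmax, the maximal ER reduction achieved across tested concentrations.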

[1] = tested on: MCF-7 breast cancer cells; test: MCF-7 proliferation / cell viability assay; conditions: Homo sapiens, MCF7; MCF-7 proliferation with 0.1 nM 17-beta estradiol; read-out: IC50 (anti-proliferation)
How it was run: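 Survival ratio, with vehicle (DMSO) as 100%, was derived from Coulter-counted viable cell numbers. Cells were grown in 5% FBS DMEM and dosed for 5 days across six concentrations between 10^−10 M and 10^−5 M.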

ER = target: T2, ER (Homo sapiens, UniProt P03372); test: ER antagonism (T47D ERE luciferase), T47d-kb-Luc cells; conditions: read-out: IC50 (ER antagonistm)
T2 construct: endogenous in cells; host or cells: T47d-kb-Luc (T47D stably transfected with a luciferase reporter gene only)
T2 sequence (P03372 1-595): T1 sequence (P03372 1-595)
How it was run: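 Five sample concentrations, each in quadruplicate and repeated in at least three experiments, were tested for blocking of estradiol activity. Values were expressed relative to the estradiol control. The cell system was the T47d-kb-Luc stable breast cancer line.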

Row | DC50 (ERα) | Dmax (ERα) | pIC50 [1] | pIC50 (ER) | Structure (SMILES)
1 | < 10 nM | > 90% | 7.30 to 8.00 | > 8.00 | CC/C(=C(\c1ccc(B(O)O)cc1)c1ccc(N2CCC(CCCN3CCN(c4ccc5c(c4)CN(C4CCC(=O)NC4=O)C5=O)CC3)CC2)cc1)c1ccccc1 (stereo not drawn) [Compound 53, (Z)-(4-(1-(4-(4-(3-(4-(2-(2,6-dioxopiperidin-3-yl)-1-oxoisoindolin-5-yl)piperazin-1-yl)propyl)piperidin-1-yl)phenyl)-2-phenylbut-1-en-1-yl)phenyl)boronic acid]
2 | < 10 nM | > 90% | 7.30 to 8.00 | > 8.00 | CC/C(=C(/c1ccc(B(O)O)cc1)c1ccc(N2CCC(CCCN3CCN(c4ccc5c(c4)CN(C4CCC(=O)NC4=O)C5=O)CC3)CC2)cc1)c1ccccc1 (stereo not drawn) [Compound 54]
3 | < 10 nM | > 75% | 7.30 to 8.00 | 7.30 to 8.00 | CC/C(=C(\c1ccc(B(O)O)cc1)c1ccc(N2CCN(CCCC3CCN(c4ccc5c(c4)C(=O)N(C4CCC(=O)NC4=O)C5=O)CC3)CC2)cc1)c1ccccc1 (stereo not drawn) [Compound 55, (Z)-(4-(1-(4-(4-(3-(1-(2-(2,6-dioxopiperidin-3-yl)-1,3-dioxoisoindolin-5-yl)piperidin-4-yl)propyl)piperazin-1-yl)phenyl)-2-phenylbut-1-en-1-yl)phenyl)boronic acid]
4 | < 10 nM | > 75% | 7.30 to 8.00 | 7.30 to 8.00 | CC/C(=C(/c1ccc(B(O)O)cc1)c1ccc(N2CCN(CCCC3CCN(c4ccc5c(c4)C(=O)N(C4CCC(=O)NC4=O)C5=O)CC3)CC2)cc1)c1ccccc1 (stereo not drawn) [Compound 56, (E)-(4-(1-(4-(4-(3-(1-(2-(2,6-dioxopiperidin-3-yl)-1,3-dioxoisoindolin-5-yl)piperidin-4-yl)propyl)piperazin-1-yl)phenyl)-2-phenlbut-1-en-1-yl)phenyl)boronic acid]
5 | < 10 nM | > 90% | 7.30 to 8.00 | 7.30 to 8.00 | CC/C(=C(\c1ccc(B(O)O)cc1)c1ccc(N2CCN(CCCC3CCN(c4ccc5c(c4)CN(C4CCC(=O)NC4=O)C5=O)CC3)CC2)cc1)c1ccccc1 (stereo not drawn) [Compound 57, (Z)-(4-(1-(4-(4-(3-(1-(2-(2,6-dioxopiperidin-3-yl)-1-oxoisoindolin-5-yl)piperidin-4-yl)propyl)piperazin-1-yl)phenyl)-2-phenylbut-1-en-1-yl)phenyl)boronic acid]
6 | < 10 nM | > 90% | 7.30 to 8.00 | 7.30 to 8.00 | CC/C(=C(/c1ccc(B(O)O)cc1)c1ccc(N2CCN(CCCC3CCN(c4ccc5c(c4)CN(C4CCC(=O)NC4=O)C5=O)CC3)CC2)cc1)c1ccccc1 (stereo not drawn) [Compound 58]
7 | 10 to 50 nM | > 90% | 7.30 to 8.00 | 7.30 to 8.00 | CC/C(=C(\c1ccc(B(O)O)cc1)c1ccc(N2CCN(CCN3CCN(c4ccc5c(c4)C(=O)N(C4CCC(=O)NC4=O)C5=O)CC3)CC2)cc1)c1ccccc1 (stereo not drawn) [Compound 59, (Z)-(4-(1-(4-(4-(2-(4-(2-(2,6-dioxopiperidin-3-yl)-1,3-dioxoisoindolin-5-yl)piperazin-1-yl)ethyl)piperazin-1-yl)phenyl)-2-phenylbut-1-en-1-yl)phenyl)boronic acid]
8 | 10 to 50 nM | > 90% | 7.30 to 8.00 | 7.30 to 8.00 | CC/C(=C(/c1ccc(B(O)O)cc1)c1ccc(N2CCN(CCN3CCN(c4ccc5c(c4)C(=O)N(C4CCC(=O)NC4=O)C5=O)CC3)CC2)cc1)c1ccccc1 (stereo not drawn) [Compound 60, (E)-(4-(1-(4-(4-(2-(4-(2-(2,6-dioxopiperidin-3-yl)-1,3-dioxoisoindolin-5-yl)piperazin-1-yl)ethyl)piperazin-1-yl)phenyl)-2-phenylbut-1-en-1-yl)phenyl)boronic acid]
9 | < 10 nM | > 90% | 7.30 to 8.00 | 7.30 to 8.00 | CC/C(=C(\c1ccc(B(O)O)cc1)c1ccc(N2CCN(CCN3CCN(c4ccc5c(c4)CN(C4CCC(=O)NC4=O)C5=O)CC3)CC2)cc1)c1ccccc1 (stereo not drawn) [Compound 61, (Z)-(4-(1-(4-(4-(2-(4-(2-(2,6-dioxopiperidin-3-yl)-1-oxoisoindolin-5-yl)piperazin-1-yl)ethyl)piperazin-1-yl)phenyl)-2-phenylbut-1-en-1-yl)phenyl)boronic acid]
10 | < 10 nM | > 90% | 7.30 to 8.00 | 7.30 to 8.00 | CC/C(=C(/c1ccc(B(O)O)cc1)c1ccc(N2CCN(CCN3CCN(c4ccc5c(c4)CN(C4CCC(=O)NC4=O)C5=O)CC3)CC2)cc1)c1ccccc1 (stereo not drawn) [Compound 62, (E)-(4-(1-(4-(4-(2-(4-(2-(2,6-dioxopiperidin-3-yl)-1-oxoisoindolin-5-yl)piperazin-1-yl)ethyl)piperazin-1-yl)phenyl)-2-phenylbut-1-en-1-yl)phenyl)boronic acid]
11 | 10 to 50 nM | > 90% | 7.30 to 8.00 | 7.30 to 8.00 | CC/C(=C(\c1ccc(B(O)O)cc1)c1ccc(N2CCC(CCN3CCN(c4ccc5c(c4)C(=O)N(C4CCC(=O)NC4=O)C5=O)CC3)CC2)cc1)c1ccccc1 (stereo not drawn) [Compound 63, (Z)-(4-(1-(4-(4-(2-(4-(2-(2,6-dioxopiperidin-3-yl)-1,3-dioxoisoindolin-5-yl)piperazin-1-yl)ethyl)piperidin-1-yl)phenyl)-2-phenylbut-1-en-1-yl)phenyl)boronic acid]
12 | 10 to 50 nM | > 90% | 7.30 to 8.00 | 7.30 to 8.00 | CC/C(=C(/c1ccc(B(O)O)cc1)c1ccc(N2CCC(CCN3CCN(c4ccc5c(c4)C(=O)N(C4CCC(=O)NC4=O)C5=O)CC3)CC2)cc1)c1ccccc1 (stereo not drawn) [Compound 64]
13 | < 10 nM | > 90% | 7.30 to 8.00 | > 8.00 | CC/C(=C(\c1ccc(B(O)O)cc1)c1ccc(N2CCN(CCC3CCN(c4ccc5c(c4)C(=O)N(C4CCC(=O)NC4=O)C5=O)CC3)CC2)cc1)c1ccccc1 (stereo not drawn) [Compound 65, (Z)-(4-(1-(4-(4-(2-(1-(2-(2,6-dioxopiperidin-3-yl)-1,3-dioxoisoindolin-5-yl)piperidin-4-yl)ethyl)piperazin-1-yl)phenyl)-2-phenylbut-1-en-1-yl)phenyl)boronic acid]
14 | < 10 nM | > 90% | 7.30 to 8.00 | 7.30 to 8.00 | CC/C(=C(/c1ccc(B(O)O)cc1)c1ccc(N2CCN(CCC3CCN(c4ccc5c(c4)C(=O)N(C4CCC(=O)NC4=O)C5=O)CC3)CC2)cc1)c1ccccc1 (stereo not drawn) [Compound 66, (E)-(4-(1-(4-(4-(2-(1-(2-(2,6-dioxopiperidin-3-yl)-1,3-dioxoisoindolin-5-yl)piperidin-4-yl)ethyl)piperazin-1-yl)phenyl)-2-phenylbut-1-en-1-yl)phenyl)boronic acid]
15 | < 10 nM | > 90% | > 8.00 | > 8.00 | CC/C(=C(\c1ccc(B(O)O)cc1)c1ccc(N2CCN(CCC3CCN(c4ccc5c(c4)CN(C4CCC(=O)NC4=O)C5=O)CC3)CC2)cc1)c1ccccc1 (stereo not drawn) [Compound 67, (Z)-(4-(1-(4-(4-(2-(1-(2-(2,6-dioxopiperidin-3-yl)-1-oxoisoindolin-5-yl)piperidin-4-yl)ethyl)piperazin-1-yl)phenyl)-2-phenylbut-1-en-1-yl)phenyl)boronic acid]
